pIC50: −log10 of the molar value.

This test addresses T1, α4β7 (adhesion of RPMI cells to CS-1) (Homo sapiens, UniProt P13612+P26010).
T1 construct: endogenous in cells
T1 sequence (P13612 34-1032): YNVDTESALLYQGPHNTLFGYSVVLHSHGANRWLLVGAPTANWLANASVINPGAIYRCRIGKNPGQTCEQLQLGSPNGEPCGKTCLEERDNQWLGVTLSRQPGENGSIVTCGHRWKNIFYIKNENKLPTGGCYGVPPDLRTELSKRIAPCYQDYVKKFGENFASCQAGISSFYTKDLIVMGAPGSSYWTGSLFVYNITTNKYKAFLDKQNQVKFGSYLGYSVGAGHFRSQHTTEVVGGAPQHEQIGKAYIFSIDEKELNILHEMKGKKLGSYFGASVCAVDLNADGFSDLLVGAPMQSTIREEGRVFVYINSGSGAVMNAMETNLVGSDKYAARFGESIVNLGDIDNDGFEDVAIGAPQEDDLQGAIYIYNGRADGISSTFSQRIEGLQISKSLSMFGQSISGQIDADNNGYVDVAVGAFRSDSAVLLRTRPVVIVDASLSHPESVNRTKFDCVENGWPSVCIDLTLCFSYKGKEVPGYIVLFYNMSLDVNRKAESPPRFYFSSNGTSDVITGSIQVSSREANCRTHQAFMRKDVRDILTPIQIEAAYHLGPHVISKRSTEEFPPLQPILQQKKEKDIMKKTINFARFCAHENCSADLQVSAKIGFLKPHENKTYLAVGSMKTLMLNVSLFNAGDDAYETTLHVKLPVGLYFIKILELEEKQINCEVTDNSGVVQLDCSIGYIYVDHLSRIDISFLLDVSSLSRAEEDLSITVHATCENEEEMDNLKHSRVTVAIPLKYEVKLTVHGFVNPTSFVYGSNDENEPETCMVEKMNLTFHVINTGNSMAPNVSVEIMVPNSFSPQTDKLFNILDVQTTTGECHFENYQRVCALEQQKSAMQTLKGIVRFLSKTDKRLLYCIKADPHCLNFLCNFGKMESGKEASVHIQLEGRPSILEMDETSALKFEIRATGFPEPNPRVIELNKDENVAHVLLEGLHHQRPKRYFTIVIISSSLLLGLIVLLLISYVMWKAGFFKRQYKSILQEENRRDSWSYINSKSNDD
T1 sequence (P26010 20-798): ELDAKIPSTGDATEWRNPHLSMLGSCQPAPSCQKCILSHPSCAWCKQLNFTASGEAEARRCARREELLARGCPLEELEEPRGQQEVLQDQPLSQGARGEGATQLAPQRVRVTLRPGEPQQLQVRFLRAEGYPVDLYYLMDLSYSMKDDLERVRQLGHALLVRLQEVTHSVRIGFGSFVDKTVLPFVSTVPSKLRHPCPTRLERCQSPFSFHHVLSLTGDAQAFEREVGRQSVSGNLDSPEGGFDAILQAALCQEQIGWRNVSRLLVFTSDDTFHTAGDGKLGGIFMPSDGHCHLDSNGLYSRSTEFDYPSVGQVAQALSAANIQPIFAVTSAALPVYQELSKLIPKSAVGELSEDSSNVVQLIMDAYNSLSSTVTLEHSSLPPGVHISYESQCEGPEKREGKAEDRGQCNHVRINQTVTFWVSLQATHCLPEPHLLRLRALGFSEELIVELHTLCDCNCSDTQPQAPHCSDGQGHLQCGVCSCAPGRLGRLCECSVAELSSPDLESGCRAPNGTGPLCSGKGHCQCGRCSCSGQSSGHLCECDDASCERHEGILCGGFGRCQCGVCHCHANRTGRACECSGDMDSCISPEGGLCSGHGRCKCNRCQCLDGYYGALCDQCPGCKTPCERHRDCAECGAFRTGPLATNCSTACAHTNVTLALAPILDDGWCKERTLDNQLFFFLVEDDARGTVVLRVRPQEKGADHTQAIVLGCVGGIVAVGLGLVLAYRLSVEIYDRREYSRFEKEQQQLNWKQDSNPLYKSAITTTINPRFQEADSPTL
The test is described as follows: RPMI-CS-1 cell adhesion assay. It counts as cell-based. Particulars: adhesion of RPMI B-cell line (expresses α4β7) to CS-1 peptide coated microwells; read-out: RPMI-CS-1 IC50 value range.
In the case of `COc1ccccc1-c1ccc(C[C@H](NC(=O)c2ccc(NS(=O)(=O)c3ccccc3C)cc2Cl)C(=O)O)cc1` [Example 192, N-[2-Chloro-4-[[(2-methylphenyl)sulfonyl]amino]benzoyl]-4-(2-methoxyphenyl)-L-phenylalanine], the pIC50 (as a rule, −log10 of the IC50, conventionally taken in molar units) was more than 6.52. Consider `C=CCOc1cc(OC)c(-c2ccc(C[C@H](NC(=O)c3c(Cl)cccc3Cl)C(=O)O)cc2)c(OC)c1` [Example 347], for which the pIC50 is more than 6.52. Turning to `COc1cccc(OC)c1-c1ccc(C[C@H](NC(=O)c2c(Cl)cccc2Cl)C(=O)OCc2ccncc2)cc1` [Example 274, N-(2,6-Dichlorobenzoyl)-4-(2,6-dimethoxyphenyl)-L-phenylalanine 4-pyridylmethyl ester], the pIC50 was 5.30 to 6.00. For `CN(C)S(=O)(=O)c1ccccc1-c1ccc(C[C@H](NC(=O)c2c(Cl)cccc2Cl)C(=O)O)cc1` [Example 21, N-(2,6-Dichlorobenzoyl)-4-[2-(N,N-dimethylsulfamoyl)phenyl]-L-phenylalanine], the pIC50 is more than 6.52. With `COc1ccccc1-c1ccc(C[C@H](NC(=O)C(=O)c2ccccc2)C(=O)O)cc1` [Example 95] the figure was 5.30 to 6.00; with `CCOc1ccc2c(c1-c1ccc(C[C@H](NC(=O)c3c(Cl)cccc3Cl)C(=O)O)cc1)OCO2` [Example 237, N-(2,6-Dichlorobenzoyl)-4-(2,3-methylenedioxy-6-ethoxyphenyl)-L-phenylalanine], more than 6.52; with `O=C(O)c1ccc(C(=O)N[C@@H](Cc2ccc(-c3ccccc3O)cc2)C(=O)O)cc1` [Example 81], less than 5.30. Take `COC(=O)[C@H](Cc1ccc(-c2ccccc2CNc2cccnc2)cc1)NC(=O)c1c(Cl)cccc1Cl` [Example 116]: the negative-log IC50 (pIC50) is 5.30 to 6.00. In the case of `O=C(N[C@@H](Cc1ccc(-c2c(O)ccc3c2OCO3)cc1)C(=O)O)c1c(Cl)cccc1Cl` [Example 236, N-(2,6-Dichlorobenzoyl)-4-(2,3-methylenedioxy-6-hydroxyphenyl)-L-phenylalanine], the negative-log IC50 (pIC50) is more than 6.52.

Regarding `O=C(N[C@@H](Cc1ccc(-c2ccccc2OCCCO)cc1)C(=O)O)c1c(Cl)cccc1Cl` [Example 37], the pIC50 was 6.00 to 6.52.

As for `O=C(N[C@@H](Cc1ccc(-c2ccccc2OCc2cccnc2)cc1)C(=O)O)c1c(Cl)cccc1Cl` [Example 40], the negative-log IC50 (pIC50) is 6.00 to 6.52.

Consider `Nc1cccc(-c2ccc(C[C@H](NC(=O)c3c(Cl)cccc3Cl)C(=O)O)cc2)c1` [Example 122], for which the pIC50 is 5.30 to 6.00.

With `CCOc1cccc(-c2ccc(C[C@H](NC(=O)c3c(Cl)cccc3Cl)C(=O)O)cc2)c1` [Example 120], the negative logarithm of the IC50 (pIC50) is less than 5.30. With `COc1ccccc1-c1ccc(C[C@H](NC(=O)c2ccc(C(=O)NS(C)(=O)=O)cc2Cl)C(=O)O)cc1` [Example 179, N-[2-Chloro-4-[N-(methanesulfonyl)carbamoyl]-benzoyl]-4-(2-methoxyphenyl)-L-phenylalanine] the figure was more than 6.52; with `C[S+]([O-])c1ccccc1-c1ccc(C[C@H](NC(=O)c2c(Cl)cccc2Cl)C(=O)O)cc1` (single isomer, unassigned) [Example 152A, N-(2,6-dichloro-benzoyl)-4-[2-(methylsulfinyl)phenyl]-L-phenylalanine], more than 6.52; with `O=Cc1ccccc1-c1ccc(C[C@H](NC(=O)c2c(Cl)cccc2Cl)C(=O)O)cc1` [Example 45, N-(2,6-Dichlorobenzoyl)-4-(2-formylphenyl)-L-phenylalanine], more than 6.52. Regarding `COc1ccccc1-c1ccc(C[C@H](NC(=O)c2ccc(S(C)(=O)=O)cc2Cl)C(=O)O)cc1` [Example 211], the pIC50 is more than 6.52. For `COc1ccccc1-c1ccc(C[C@H](NC(=O)c2ccc(S(N)(=O)=O)cc2)C(=O)O)cc1` [Example 210], the pIC50 is 5.30 to 6.00. Regarding `O=C(O)COc1ccccc1-c1ccc(C[C@H](NC(=O)c2c(Cl)cccc2Cl)C(=O)O)cc1` [Example 32, N-(2,6-Dichlorobenzoyl)-4-[2-(carboxymethoxy)-phenyl]-L-phenylalanine], the pIC50 is more than 6.52. On to `COc1ncnc(OC)c1-c1ccc(C[C@H](NC(=O)c2c(Cl)cccc2Cl)C(=O)O)cc1` [Example 144], for which the negative logarithm of the IC50 (pIC50) is more than 6.52. For the compound `O=C(N[C@@H](Cc1ccc(-c2ccccc2)cc1)C(=O)O)c1c(Cl)cccc1Cl` [Example 111], the negative logarithm of the IC50 (pIC50) is 5.30 to 6.00. With `COc1ccccc1-c1ccc(C[C@H](NC(=O)c2ccc(NC(N)=O)cc2Cl)C(=O)O)cc1` [Example 69, N-(2-Chloro-4-ureidobenzoyl)-4-(2-methoxyphenyl)-L-phenylalanine] the figure was more than 6.52; with `O=C(N[C@@H](Cc1ccc(-c2ccccc2O)cc1)C(=O)O)c1c(Cl)cccc1Cl` [Example 30, N-(2,6-Dichlorobenzoyl)-4-(2-hydroxyphenyl)-L-phenylalanine], 6.00 to 6.52; with `O=C(N[C@@H](Cc1ccc(-c2ccccc2)cc1)C(=O)O)c1ccccc1[N+](=O)[O-]` [Example 110], less than 5.30. For the compound `CCOC(=O)Nc1ccc(C(=O)N[C@@H](Cc2ccc(-c3ccccc3OC)cc2)C(=O)O)c(Cl)c1` [Example 66, N-[2-Chloro-4-(ethoxycarbonylamino)benzoyl]-4-(2-methoxyphenyl)-L-phenylalanine], the pIC50 is more than 6.52. Turning to `CC(C)COc1ccccc1-c1ccc(C[C@H](NC(=O)c2c(Cl)cccc2Cl)C(=O)O)cc1` [Example 35], the pIC50 is 5.30 to 6.00.

For `O=C(NCCO)c1ccccc1-c1ccc(C[C@H](NC(=O)c2c(Cl)cccc2Cl)C(=O)O)cc1` [Example 56, N-(2,6-Dichlorobenzoyl)-4-[2-[N-(2-hydroxyethyl)carbamoyl]phenyl]-L-phenylalanine], the negative-log IC50 (pIC50) was 6.00 to 6.52. Consider `COc1cccc(OC)c1-c1ccc(C[C@H](NC(=O)c2ccccc2C(C)C)C(=O)O)cc1` [Example 280], for which the negative logarithm of the IC50 (pIC50) is more than 6.52. With `CN(C)c1ccccc1-c1ccc(C[C@H](NC(=O)c2c(Cl)cccc2Cl)C(=O)O)cc1` [Example 27, N-(2,6-Dichlorobenzoyl)-4-[2-(N,N-dimethylamino)phenyl]-L-phenylalanine] the figure was more than 6.52. On to `CC(=O)Nc1cc(C[C@H](NC(=O)c2c(Cl)cccc2Cl)C(=O)O)ccc1-c1ccccc1` [Example 343, N-(2,6-Dichlorobenzoyl)-3-acetylamino-4-phenyl-L-phenylalanine], for which the pIC50 was 5.30 to 6.00. Consider `CCOC(=O)Nc1cc(C[C@H](NC(=O)c2c(Cl)cccc2Cl)C(=O)O)ccc1-c1ccccc1OC` [Example 345], for which the pIC50 was 6.00 to 6.52. With `COc1ccccc1-c1ccc(C[C@H](NC(=O)c2ccc(NS(C)(=O)=O)cc2Cl)C(=O)O)cc1` [Example 64, N-[2-Chloro-4-(methanesulfonylamino)benzoyl]-4-(2-methoxyphenyl)-L-phenylalanine] the figure was more than 6.52; with `COc1c(F)cc(F)c(OC)c1-c1ccc(C[C@H](NC(=O)c2c(Cl)cccc2Cl)C(=O)O)cc1` [Example 153B, N-(2,6-dichlorobenzoyl)-4-(2,6-dimethoxy-3,5-difluorophenyl)-L-phenylalanine], more than 6.52. Regarding `COc1ccccc1-c1ccc(C[C@H](NC(=O)c2ccccc2NC(=O)c2c(Cl)cccc2Cl)C(=O)O)cc1` [Example 106], the negative logarithm of the IC50 (pIC50) is 5.30 to 6.00. With `COc1ccccc1-c1ccc(C[C@H](NC(=O)c2ccccc2NC(C)=O)C(=O)O)cc1` [Example 105] the figure was less than 5.30.

For the origin of these results see patent publication US6855843B2, “Inhibitors of α4 mediated cell adhesion” (Tanabe Seiyaku Co., Ltd., priority 1998, dated 2005).
